This test deals with C3AKF1 mice, osteogenic sarcoma HE10734 s.c., tumor weight T/C. The experiment in a line: NCI In Vivo Anticancer Drug Screen. Data for tumor model Osteogenic Sarcoma HE 10734 (subcutaneous) in C3AKF1 (CHKRF1) mice. The settings on record: endpoint: mean tumor weight, schedule: Q01DX010 (ip), higher = larger tumour. Here is the method: The antitumor activity of compounds was measured in mice bearing transplantable tumors. Survival or tumor size were measured and the results are expressed as the measurement made in the treated group (T) divided by the measurement made in the vehicle treated control group (C). The tumor model used in this assay is Osteogenic Sarcoma HE 10734 (subcutaneous) in C3AKF1 (CHKRF1) mice

[1] abbreviates: dose: 35.0 mg/kg/injection, vehicle: carboxymethylcellulose (CMC).
Setting [2] is: dose: 12.0 mg/kg/injection, vehicle: saline.
Setting [3] is: dose: 25.0 mg/kg/injection, vehicle: saline.
The mark [4] stands for this setting: dose: 50.0 mg/kg/injection, vehicle: saline.
Setting [5] is: dose: 100.0 mg/kg/injection, vehicle: saline.
[6] abbreviates: dose: 15.0 mg/kg/injection, vehicle: carboxymethylcellulose (CMC).
The mark [7] stands for this setting: dose: 30.0 mg/kg/injection, vehicle: carboxymethylcellulose (CMC).
The mark [8] stands for this setting: dose: 60.0 mg/kg/injection, vehicle: carboxymethylcellulose (CMC).
Setting [9] is: dose: 120.0 mg/kg/injection, vehicle: carboxymethylcellulose (CMC).
[10] abbreviates: dose: 25.0 mg/kg/injection, vehicle: carboxymethylcellulose (CMC).
Where [11] appears, read: dose: 50.0 mg/kg/injection, vehicle: carboxymethylcellulose (CMC).
The mark [12] stands for this setting: dose: 16.0 mg/kg/injection, vehicle: carboxymethylcellulose (CMC).
The mark [13] stands for this setting: dose: 24.0 mg/kg/injection, vehicle: carboxymethylcellulose (CMC).
Where [14] appears, read: dose: 55.0 mg/kg/injection, vehicle: carboxymethylcellulose (CMC).
The mark [15] stands for this setting: dose: 85.0 mg/kg/injection, vehicle: carboxymethylcellulose (CMC).
[16] abbreviates: dose: 2.0 mg/kg/injection, vehicle: carboxymethylcellulose (CMC).
Setting [17] is: dose: 4.0 mg/kg/injection, vehicle: carboxymethylcellulose (CMC).
The mark [18] stands for this setting: dose: 125.0 mg/kg/injection, vehicle: carboxymethylcellulose (CMC).
Setting [19] is: dose: 200.0 mg/kg/injection, vehicle: saline.

Consider 22 molecules from PubChem BioAssay AID310 (DTP/NCI, 2004).

Where “and” joins values, the source holds several entries; their conditions need not be identical. Equal entries are not always repeated. Records with an inconclusive call do not appear.

Regarding `O=C(O)C(=O)c1ccc(-c2ccccc2)cc1`, under setting [1], the T/C is 69 % of control.

On to `NC(=O)c1ccc(NC(=O)CCC(=O)Nc2ccc(C(N)=O)cn2)nc1`, for which the T/C is, setting by setting: (dose: 0.66 mg/kg/injection, vehicle: carboxymethylcellulose (CMC)) 118 % of control and 120 % of control; (dose: 2.5 mg/kg/injection, vehicle: carboxymethylcellulose (CMC)) 67 % of control.

With `S=c1nc[nH]c2c1ncn2C1CCCO1` (stereo not drawn), the T/C under setting [2] is 84 % of control; the T/C under setting [3] is 85 % of control; the T/C under setting [4] was 62 % of control; the T/C under setting [5] was 30 % of control and 33 % of control.

`CC(=O)Nc1ccc(NC(=O)c2ccc([As](O)O)cc2)cc1`: the T/C by setting is: under setting [6], 89 % of control; under setting [7], 111 % of control; under setting [8], 85 % of control; under setting [9], 61 % of control and 62 % of control; (dose: 240.0 mg/kg/injection, vehicle: carboxymethylcellulose (CMC)) 32 % of control.

Regarding `CCN(CC)CCN1C(=O)c2cccc3cccc(c23)C1=O`, the T/C is 86 % of control under setting [10]; 78 % of control under setting [11]; 85 % of control (dose: 100.0 mg/kg/injection, vehicle: carboxymethylcellulose (CMC)).

As for `O=c1c[n+](-c2ccccc2)[nH]o1`, the T/C was 87 % of control (dose: 22.5 mg/kg/injection, vehicle: carboxymethylcellulose (CMC)); 110 % of control (dose: 45.0 mg/kg/injection, vehicle: carboxymethylcellulose (CMC)); 83 % of control (dose: 90.0 mg/kg/injection, vehicle: carboxymethylcellulose (CMC)); 70 % of control (dose: 180.0 mg/kg/injection, vehicle: carboxymethylcellulose (CMC)).

For the molecule `CCCCCCC(=O)NC1=C(N2CC2)C(=O)C(NC(=O)CCCCCC)=C(N2CC2)C1=O`, the T/C reads like this: under setting [6], 104 % of control; under setting [7], 83 % of control; under setting [8], 50 % of control; under setting [9], 33 % of control.

On to `O=C(c1ccc(C(=O)N2CC2)cc1)N1CC1`, for which the T/C is 55 % of control (dose: 3.13 mg/kg/injection, vehicle: carboxymethylcellulose (CMC)); 106 % of control (dose: 6.25 mg/kg/injection, vehicle: carboxymethylcellulose (CMC)); 118 % of control (dose: 12.5 mg/kg/injection, vehicle: carboxymethylcellulose (CMC)).

As to `O=c1[nH]c2cc(Cl)c(Cl)cc2o1`, the T/C is 84 % of control (dose: 10.0 mg/kg/injection, vehicle: carboxymethylcellulose (CMC)); 113 % of control under setting [12]; 74 % of control under setting [13]; 105 % of control and 117 % of control (dose: 37.0 mg/kg/injection, vehicle: carboxymethylcellulose (CMC)); 80 % of control under setting [14]; 98 % of control under setting [15].

In the case of `CCC(=O)NC1=C(N2CC2)C(=O)C(NC(=O)CC)=C(N2CC2)C1=O`, the T/C (dose: 0.26 mg/kg/injection, vehicle: saline) is 118 % of control; the T/C (dose: 0.4 mg/kg/injection, vehicle: saline) was 77 % of control; the T/C (dose: 1.2 mg/kg/injection, vehicle: saline) was 30 % of control.

As for `O=C(O)Cc1ccc(C2CCCCC2)cc1`, the T/C (dose: 150.0 mg/kg/injection, vehicle: carboxymethylcellulose (CMC)) was 95 % of control.

For `O=P(N1CC1)(N1CC1)N1CC1`, the T/C runs as follows: (dose: 0.5 mg/kg/injection, vehicle: carboxymethylcellulose (CMC)) 104 % of control; (dose: 1.0 mg/kg/injection, vehicle: carboxymethylcellulose (CMC)) 76 % of control; under setting [16], 67 % of control; under setting [17], 41 % of control.

As for `O=S1(=O)CCCO1`, the T/C is, setting by setting: (dose: 40.0 mg/kg/injection, vehicle: carboxymethylcellulose (CMC)) 75 % of control; (dose: 80.0 mg/kg/injection, vehicle: carboxymethylcellulose (CMC)) 76 % of control.

Consider `N#CCSc1nc(N)nc2nc[nH]c12`, for which the T/C by setting is: under setting [16], 90 % of control; under setting [17], 107 % of control; (dose: 8.0 mg/kg/injection, vehicle: carboxymethylcellulose (CMC)) 86 % of control; under setting [12], 91 % of control; under setting [13], 113 % of control; under setting [1], 93 % of control. Further, the T/C under setting [14] is 90 % of control and 100 % of control; the T/C under setting [15] was 44 % of control; the T/C under setting [18] is 22 % of control.

With `CCCC(Sc1nc(N)nc2nc[nH]c12)C(=O)O` (stereo not drawn), the T/C by setting is: under setting [4], 80 % of control; under setting [5], 53 % of control; under setting [19], 40 % of control; (dose: 400.0 mg/kg/injection, vehicle: saline) 17 % of control.

Consider `Cc1ccc(N=NN(C)C)cc1`, for which the T/C is 83 % of control under setting [3], 46 % of control under setting [4] and 46 % of control under setting [5].

For `ClCCn1cnc2c(SCc3ccccc3Cl)ncnc21`, the T/C was 72 % of control under setting [4], 56 % of control under setting [5] and 35 % of control under setting [19].

For `CCn1cnc2c(SC)nc(N)nc21`, the T/C reads like this: under setting [2], 76 % of control; under setting [3], 93 % of control; under setting [4], 95 % of control; under setting [5], 108 % of control; (dose: 340.0 mg/kg/injection, vehicle: saline) 57 % of control.

In the case of `CC(CCc1cccc2ccccc12)(C(=O)O)C(=O)O`, the T/C (dose: 35.0 mg/kg/injection, vehicle: saline) is 68 % of control and the T/C under setting [4] is 157 % of control.

Regarding `COc1ccc(-c2c(CC(=O)O)c3cc(OC)ccc3n2Cc2ccc(Cl)cc2)cc1`, the T/C is, setting by setting: under setting [18], 116 % of control; (dose: 250.0 mg/kg/injection, vehicle: carboxymethylcellulose (CMC)) 66 % of control; (dose: 500.0 mg/kg/injection, vehicle: carboxymethylcellulose (CMC)) 54 % of control; (dose: 1000.0 mg/kg/injection, vehicle: carboxymethylcellulose (CMC)) 56 % of control.

As for `CCCNC(=NC)c1ccc(NC(=O)c2ccc(C(=O)Nc3ccc(C(=NC)NCCC)cc3)cc2)cc1`, the T/C was 91 % of control (dose: 3.0 mg/kg/injection, vehicle: saline); 46 % of control (dose: 6.0 mg/kg/injection, vehicle: saline); 46 % of control under setting [2].

Turning to `Nc1nc(SCc2ccccc2Cl)c2[nH]cnc2n1`, the T/C (dose: 6.0 mg/kg/injection, vehicle: carboxymethylcellulose (CMC)) was 70 % of control; the T/C (dose: 12.0 mg/kg/injection, vehicle: carboxymethylcellulose (CMC)) was 52 % of control; the T/C under setting [10] is 54 % of control; the T/C under setting [11] was 43 % of control; the T/C under setting [4] is 32 % of control and 39 % of control; the T/C (dose: 70.0 mg/kg/injection, vehicle: saline) is 41 % of control. The T/C reads like this: (dose: 110.0 mg/kg/injection, vehicle: saline) 16 % of control and 33 % of control; (dose: 165.0 mg/kg/injection, vehicle: saline) 13 % of control.
